Assay: in vitro
Settings: human, hela cells, % viability

Structure (SMILES) | viability at 28.5 h, 10 µM [%] | viability at 28.5 h, 10 µM (bulk resorufin, single well) [%]
FC(F)(F)c1ccccc1/C=N/n1c(S)nnc1COc1ccccc1 [CBK265260] | 99.7 | –
COc1ccc(Cl)cc1NC(=O)CN(c1ccccc1)S(=O)(=O)c1ccc(Cl)cc1 [CBK265261] | 105 | –
CS(=O)(=O)N(CC(=O)Nc1ccccc1F)c1ccc(I)cc1 [CBK265265] | 97.4 | –
O=C(O)C(Cc1ccccc1)Nc1ncnc2sc3c(c12)CCC3 (stereo not shown) [CBK265266] | 90.2 | –
CC12CCC(C(=O)O)(C/C1=N\N)C2(C)C (stereo not shown) [CBK265268] | 113 | –
COC(=O)CN1C(=O)S/C(=C/c2cc(C)n(-c3ccc4ncccc4c3)c2C)C1=O [CBK265275] | 121 | –
COc1ccc(C2=NN(c3ccc([N+](=O)[O-])cc3)C(=O)/C2=C/NCc2ccccn2)cc1 [CBK265276] | 107 | –
O=C(CCc1ccccc1)NC(c1cccc([N+](=O)[O-])c1)c1c(O)ccc2ccccc12 (stereo not shown) [CBK265278] | 109 | –
COc1cc(/C=C2\SC(=S)N(c3cccc(C(=O)O)c3)C2=O)cc([N+](=O)[O-])c1O [CBK265281] | 96.2 | –
O=C(O)CCn1cc(/C=C2\SC(=S)NC2=O)c(-c2cccc(Br)c2)n1 [CBK265287] | 110 | –
Oc1ccc(/C=C/c2nc(-c3ccccc3O)n(-c3ccccc3)n2)cc1 [CBK265289] | 74.4 | –
O=C(CN(c1ccccc1)S(=O)(=O)c1ccccc1)N1CCN(Cc2ccc3c(c2)OCO3)CC1 [CBK265290] | 90 | –
O=C(Nc1cccc([N+](=O)[O-])c1)c1ccc(CSc2ccccc2)cc1 [CBK265295] | 117 | –
CCOC(=O)c1cnc2c(C)c(Cl)ccc2c1NCCCN1CCOCC1 [CBK265296] | 99.6 | –
CCOC(=O)c1c(NC(=O)/C=C/C(=O)O)sc2c1CCCCC2 [CBK265299] | 91.5 | –
Oc1cccc(/C=N/n2c(S)nnc2-c2ccncc2)c1 [CBK265300] | 109 | –
COc1ccc(S(=O)(=O)N(CC(=O)N2CCC(C(N)=O)CC2)c2ccccc2)cc1 [CBK265301] | 108 | –
Cc1cc(C(=O)Oc2cccc(NC3=NS(=O)(=O)c4ccccc43)c2)c2ccccc2n1 [CBK265302] | 96.5 | –
O=S(=O)(NCCSCc1c(Cl)cccc1Cl)c1ccc(Cl)cc1 [CBK265304] | 91.2 | –
CSc1nc(O)c(C(c2ccc(Cl)cc2)c2c(O)nc(SC)nc2O)c(O)n1 [CBK265306] | 105 | –
O=C(O)CCn1cc(C=C2C(=O)NC(=S)NC2=O)c(-c2cccc([N+](=O)[O-])c2)n1 [CBK265309] | – | 116
O=C(CNC(=S)NC(=O)c1ccc(Br)o1)c1ccccc1 [CBK265310] | 98 | –

Structure (SMILES) | viability at 28.5 h, 10 µM [%] | viability at 28.5 h, 10 µM (bulk resorufin, single well) [%]
N=C1NC(=O)/C(=C/c2c(OS(=O)(=O)c3ccc(Cl)cc3)ccc3ccccc23)S1 [CBK265311] | 89.6 | –
CCNC(=O)c1cc2c(=O)n3cc(C)ccc3nc2n(Cc2ccco2)c1=N [CBK265312] | 85.8 | –
CSc1nc(O)c(C(c2ccc(C)cc2)c2c(O)nc(SC)nc2O)c(O)n1 [CBK265313] | 90.3 | –
NC(=O)C1CCN(C(=O)CN(c2ccccc2)S(=O)(=O)c2ccccc2[N+](=O)[O-])CC1 [CBK265320] | 78 | –
COc1ccc(NC(=S)NC(=O)c2cc3c(C)nn(-c4ccccc4)c3s2)cc1[N+](=O)[O-] [CBK265324] | 102 | –
CN(C)CCCOC(=O)C(C)(c1ccccc1)c1ccccc1 [CBK265325C] | 118 | –
OCCNC(=S)Nc1ccc(Cl)cc1Cl [CBK265330] | 106 | –
N/C(=N\OCC(=O)Nc1ccc(-n2cnnn2)cc1)c1nonc1N [CBK265331] | 104 | –
Cc1ccc(NC(=O)c2cc(NC(=O)c3ccccc3C(=O)O)ccc2N2CCCCC2)cc1 [CBK265332] | 100 | –
COc1ccc(NC(=O)CC2SC(=N)NC2=O)c([N+](=O)[O-])c1 (stereo not shown) [CBK265334] | 95.9 | –
O=C(O)COc1ccccc1/C=N/n1c(S)nnc1-c1cccnc1 [CBK265337] | 89.9 | –
O=C(Nc1ccccc1)Nc1ccccc1C(=O)NCc1ccccc1 [CBK265338] | 90.2 | –
CC(=O)NC(=NOCc1ccc(Br)cc1)c1nonc1NC(C)=O [CBK265342] | 87.8 | –
COc1ccccc1NC(=S)NCCN(C)C [CBK265343] | 111 | –
O=C(O)c1ccc(/C=N/N2CCN(Cc3ccccc3)CC2)cc1 [CBK265344] | 108 | –
O=C(O)CCNc1nc(Cc2ccccc2)nc2sc3c(c12)CCCC3 [CBK265345] | 93.4 | –
CCc1cc2c(NC(C(=O)O)C(C)C)ncnc2s1 (stereo not shown) [CBK265349] | 97.7 | –
Cc1ccc(NC(=O)c2cc(NC(=O)C3C4C=CC(C4)C3C(=O)O)ccc2N2CCCCC2)cc1 (stereo not shown) [CBK265350] | 107 | –
CC(=O)Nc1ccc(C(=O)N/C(=C/c2ccccc2)C(=O)O)cc1 [CBK265353] | 87.6 | –
N=C1/C(=C/c2ccc(-c3cccc([N+](=O)[O-])c3)o2)C(=O)N=C2SC(SCc3ccccc3)=NN12 [CBK265354] | 88.5 | –
Cc1sc2ncn(Cc3c(Cl)cccc3Cl)c(=O)c2c1C [CBK265355] | 78.8 | –
COc1ccccc1NC(=S)NCCc1ccccn1 [CBK265358] | 91.2 | –

Structure (SMILES) | viability at 28.5 h, 10 µM [%] | viability at 28.5 h, 10 µM (bulk resorufin, single well) [%]
COC(=O)Nc1ccc(S(=O)(=O)N2CCCC(C(=O)Nc3ccc4c(c3)OCO4)C2)cc1 (stereo not shown) [CBK265361] | 89.8 | –
CS(=O)(=O)N(CC(=O)NCc1ccccn1)c1ccc(I)cc1 [CBK265369] | 78.8 | –
CC(=O)Oc1ccc(NC(=O)C2CC(Cl)=CCC2C(=O)O)cc1C(=O)O (stereo not shown) [CBK265372] | 100 | –
O=Cc1cn(CCC(=O)O)nc1-c1cc2ccccc2o1 [CBK265376] | 90 | –
COC(=O)c1c(NC(=O)CCCC(=O)O)sc(C)c1C [CBK265382] | 98.2 | –
CCC(C(=O)Nc1sc2c(c1C(N)=O)CCCCCC2)c1ccccc1 (stereo not shown) [CBK265383] | 85.8 | –
O=C(CC(Nc1ccccc1Cl)C(=O)O)c1ccccc1 (stereo not shown) [CBK265386] | 81.1 | –
O=c1cc2oc3cc(O)c(O)cc3c(-c3cccc(OCc4ccc([N+](=O)[O-])cc4)c3)c-2cc1O [CBK265388] | 91 | –
COC(=O)c1sc(NC(=O)C2CCCCC2C(=O)O)c(C(=O)OC)c1C (stereo not shown) [CBK265389] | 106 | –
Cc1cc(Cl)ccc1OCCCC(=O)Nc1sc2c(c1C(N)=O)CCCCCC2 [CBK265390] | 94.8 | –
Cc1ccccc1OCCn1c(=N)n(CC(C)C)c2ccccc21 [CBK265392B] | 94.9 | –
COC(=O)c1c(NC(=O)CCCC(=O)O)sc2c1CCCCC2 [CBK265393] | 85.4 | –
CCCc1cc(C(=O)OC)c(NC(=O)C2CC=CCC2C(=O)O)s1 (stereo not shown) [CBK265397] | 117 | –
Cc1nn(C)cc1CN(C)S(=O)(=O)c1cccc([N+](=O)[O-])c1 [CBK265399] | 79.9 | –
CCOc1ccccc1N1C(=O)CC(Sc2nc(-c3ccccc3)c3cc(Cl)ccc3n2)C1=O (stereo not shown) [CBK265405] | 116 | –
COc1ccc(N2C(=O)c3ccccc3NC2c2cccc(OCC(=O)Nc3ccccc3)c2)cc1 (stereo not shown) [CBK265406] | 108 | –
CCOC(=O)CN1C(=O)S/C(=C/c2cc(C)n(-c3ccc(S(N)(=O)=O)cc3)c2C)C1=O [CBK265410] | 94 | –
CCOc1cc(C=C2C(=O)NC(=S)NC2=O)cc(Br)c1OCC(=O)O [CBK265411] | – | 98.4
CCOC(=O)c1cc(C)sc1NC(=O)CCC(=O)O [CBK265412] | 108 | –
COc1ccc(N2CCN(c3nc(NCCO)nc(N4CCOCC4)n3)CC2)cc1 [CBK265413] | 99.3 | –
O=C(Nc1nc2nccc(-c3ccccc3)n2n1)c1cccc([N+](=O)[O-])c1 [CBK265414] | 87.6 | –
Cc1cc(N2C(=O)c3ccc(C(=O)O)cc3C2=O)ccc1NC(=O)c1cccs1 [CBK265415] | 92.8 | –

Structure (SMILES) | viability at 28.5 h, 10 µM [%] | viability at 28.5 h, 10 µM (bulk resorufin, single well) [%]
CCOC(=O)c1cc(C(C)C)sc1NC(=O)C1C2C=CC(C2)C1C(=O)O (stereo not shown) [CBK265417] | 95.4 | –
COC(=O)c1ccc(C(=O)OC)c(NC(=O)C2CCCCC2C(=O)O)c1 (stereo not shown) [CBK265422] | 88 | –
Cc1ccc(NC(=O)/C=C/c2ccc3c(c2)OCO3)c(NC(=O)/C=C/c2ccc3c(c2)OCO3)c1 [CBK265423] | 114 | –
O=C(COc1ccc(/C=C2\C(=O)NC(=O)N(c3ccc(O)cc3)C2=O)cc1Cl)Nc1ccccc1 [CBK265425] | – | 84.4
CC(=O)Nc1cccc(OCC(=O)Nc2ccc(C)c(C)c2)c1 [CBK265429] | 95.9 | –
CCc1c(C)sc(NC(=O)C2C3C=CC(C3)C2C(=O)O)c1C(N)=O (stereo not shown) [CBK265433] | 97.9 | –
COC(=O)c1sccc1NC(=O)c1ccncc1 [CBK265438] | 85.4 | –
O=C(COc1ccc2ccccc2c1)NCCN1CCOCC1 [CBK265444] | 107 | –
O=C(/C=C/c1ccc2c(c1)OCO2)Nc1ccc(S(=O)(=O)Nc2cnc3ccccc3n2)cc1 [CBK265445] | 86.9 | –
O=C(/C=C/c1c(F)cccc1Cl)Nc1nnn[nH]1 [CBK265447] | 102 | –
Cc1oc(CC(C)C)c(CN2CCCCC2)c1C(=O)O [CBK265448C] | 113 | –
O=C(O)COc1ccc(/C=C2\C(=O)NC(=O)N(c3ccc(OCc4ccccc4)cc3)C2=O)cc1 [CBK265449] | – | 83.6
CC(Oc1cccc(Cl)c1)C(=O)Nc1ncccn1 (stereo not shown) [CBK265450] | 90.2 | –
CC1=C(C)CC(C(=O)NC(C)CCc2ccccc2)C(C(=O)O)C1 (stereo not shown) [CBK265452] | 99.9 | –
O=C(O)C1C2C=CC(C2)C1C(=O)NCc1ccco1 (stereo not shown) [CBK265453] | 92.7 | –
O=C(Nc1nc2ccccc2[nH]1)C1c2ccccc2Oc2ccccc21 [CBK265454] | 98.9 | –
O=C(CSc1nnc2sc3ccccc3n12)N1c2ccccc2Sc2ccccc21 [CBK265457] | 89 | –
COC(=O)c1ccc(N2C(=O)NC(=O)/C(=C\c3ccccc3OCC(=O)O)C2=O)cc1 [CBK265459] | – | 84.7
Cc1ccc(-c2cc(C(=O)O)[nH]n2)cc1 [CBK265462] | 101 | –
